Earlier results in patent publication US10154669B2, “Improving color and release profile of resin compositions comprising silver nanoparticles” (The Board of Regents of the University of Texas System, priority 2013, dated 2018).

Details: in water

Structure (SMILES): C=C(C)C(=O)OC [methyl methacrylate]
- water solubility: about 1.6 g in 100 g of water
